# Data taken from PubChem BioAssay AID1963446 (Molecular Pharmacology Branch, DTP, NCI, 2024).
# “And” between values parts separate entries of the source, which are not always exact repeats. Equal values may be shown once.
# System: 993429-296-R-J1-PDC complex spheroid growth, percent test/control
# Test: Anticancer human tumor 993429-296-R-J1-PDC patient-derived uterine sarcoma cell line growth inhibition [Asc]
# Conditions: for viability, T/C: stronger effect = lower value
# Method in brief: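 Stromal components (HUVEC and hMSC) are co-assembled with the cancer cells into multicellular spheroids. Drugs are then added singly or paired, at concentrations falling by half-log increments from a clinically achievable maximum, capped at 10 microM without known Cmax.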
# [1] = curve of first compound, second compound 0.01 µM
# [2] = curve of first compound, second compound 0.0316 µM
# [3] = curve of first compound, second compound 0.1 µM
# [4] = curve of first compound, second compound 0.316 µM
# [5] = curve of first compound, second compound 1 µM
# 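Note: spheroids exposed to compounds for seven days.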
compound,measurement,setting,value
NC(=O)C(=Cn1cnc(-c2cc(C(F)(F)F)cc(C(F)(F)F)c2)n1)c1cncnc1 + CNC(C)C(=O)NC1CN(S(=O)(=O)c2cccc(S(=O)(=O)N3CCC4CCC(C(=O)NC(c5ccccc5)c5ccccc5)N4C(=O)C(NC(=O)C(C)NC)C3)c2)CCC2CCC(C(=O)NC(c3ccccc3)c3ccccc3)N2C1=O,IC50,[1],12.8 nM
same,IC50,[2],11.1 nM
same,IC50,[3],8.96 nM
same,IC50,[4],5.99 nM
same,IC50,[5],8.1 nM
same,"viability, T/C","second compound 0.01 µM, first compound 0.000949 µM",62.7%
same,"viability, T/C","second compound 0.01 µM, first compound 0.003 µM",65.6%
same,"viability, T/C","second compound 0.01 µM, first compound 0.00949 µM",55.4%
same,"viability, T/C","second compound 0.01 µM, first compound 0.03 µM",33.1%
same,"viability, T/C","second compound 0.01 µM, first compound 0.0949 µM",14.9%
same,"viability, T/C","second compound 0.01 µM, first compound 0.3 µM",8.47%
same,"viability, T/C","second compound 0.0316 µM, first compound 0.000949 µM",63.6%
same,"viability, T/C","second compound 0.0316 µM, first compound 0.003 µM",63.1%
same,"viability, T/C","second compound 0.0316 µM, first compound 0.00949 µM",52.1%
same,"viability, T/C","second compound 0.0316 µM, first compound 0.03 µM",33%
same,"viability, T/C","second compound 0.0316 µM, first compound 0.0949 µM",14.9%
same,"viability, T/C","second compound 0.0316 µM, first compound 0.3 µM",8%
same,"viability, T/C","second compound 0.1 µM, first compound 0.000949 µM",58.3%
same,"viability, T/C","second compound 0.1 µM, first compound 0.003 µM",61.1%
same,"viability, T/C","second compound 0.1 µM, first compound 0.00949 µM",48.1%
same,"viability, T/C","second compound 0.1 µM, first compound 0.03 µM",33.3%
same,"viability, T/C","second compound 0.1 µM, first compound 0.0949 µM",16%
same,"viability, T/C","second compound 0.1 µM, first compound 0.3 µM",4.45%
same,"viability, T/C","second compound 0.316 µM, first compound 0.000949 µM",57.6%
same,"viability, T/C","second compound 0.316 µM, first compound 0.003 µM",60%
same,"viability, T/C","second compound 0.316 µM, first compound 0.00949 µM",43.7%
same,"viability, T/C","second compound 0.316 µM, first compound 0.03 µM",29%
same,"viability, T/C","second compound 0.316 µM, first compound 0.0949 µM",15.8%
same,"viability, T/C","second compound 0.316 µM, first compound 0.3 µM",8.88%
same,"viability, T/C","second compound 1 µM, first compound 0.000949 µM",52%
same,"viability, T/C","second compound 1 µM, first compound 0.003 µM",62.6%
same,"viability, T/C","second compound 1 µM, first compound 0.00949 µM",47.8%
same,"viability, T/C","second compound 1 µM, first compound 0.03 µM",28.5%
same,"viability, T/C","second compound 1 µM, first compound 0.0949 µM",14.1%
same,"viability, T/C","second compound 1 µM, first compound 0.3 µM",5.77%
COc1c(OCCCN2CCOCC2)ccc2c3n(c(=NC(=O)c4cnc(N)nc4)nc12)CCN3,"viability, T/C",compound 0.00316 µM,91.3% and 101% and 95.5%
same,"viability, T/C",compound 0.01 µM,76.7% and 74.9% and 85.9%
same,"viability, T/C",compound 0.0316 µM,32.1% and 39% and 47.7%
same,"viability, T/C",compound 0.1 µM,7.79% and 8.14% and 20.2%
same,"viability, T/C",compound 0.316 µM,3.91% and 3.64% and 6.96%
same,"viability, T/C",compound 1 µM,1.4% and 1.43% and 2.5%
same,IC50,curve of compound,20 nM and 21.5 nM and 31.6 nM
O=C(c1cc(Cc2n[nH]c(=O)c3ccccc23)ccc1F)N1CCN(C(=O)C2CC2)CC1 + CNC(C)C(=O)NC1CN(S(=O)(=O)c2cccc(S(=O)(=O)N3CCC4CCC(C(=O)NC(c5ccccc5)c5ccccc5)N4C(=O)C(NC(=O)C(C)NC)C3)c2)CCC2CCC(C(=O)NC(c3ccccc3)c3ccccc3)N2C1=O,IC50,[1],2080 nM
same,IC50,[2],1740 nM
same,IC50,[3],1110 nM
same,IC50,[4],406 nM
same,IC50,[5],903 nM
same,"viability, T/C","second compound 0.01 µM, first compound 0.0316 µM",63.2%
same,"viability, T/C","second compound 0.01 µM, first compound 0.1 µM",73.3%
same,"viability, T/C","second compound 0.01 µM, first compound 0.316 µM",64.6%
same,"viability, T/C","second compound 0.01 µM, first compound 1 µM",64.5%
same,"viability, T/C","second compound 0.01 µM, first compound 3.16 µM",41.8%
same,"viability, T/C","second compound 0.01 µM, first compound 10 µM",17.7%
same,"viability, T/C","second compound 0.0316 µM, first compound 0.0316 µM",61.5%
same,"viability, T/C","second compound 0.0316 µM, first compound 0.1 µM",56.2%
same,"viability, T/C","second compound 0.0316 µM, first compound 0.316 µM",59.5%
same,"viability, T/C","second compound 0.0316 µM, first compound 1 µM",59.6%
same,"viability, T/C","second compound 0.0316 µM, first compound 3.16 µM",40%
same,"viability, T/C","second compound 0.0316 µM, first compound 10 µM",12.4%
same,"viability, T/C","second compound 0.1 µM, first compound 0.0316 µM",53.4%
same,"viability, T/C","second compound 0.1 µM, first compound 0.1 µM",63.5%
same,"viability, T/C","second compound 0.1 µM, first compound 0.316 µM",54.8%
same,"viability, T/C","second compound 0.1 µM, first compound 1 µM",51.4%
same,"viability, T/C","second compound 0.1 µM, first compound 3.16 µM",36.3%
same,"viability, T/C","second compound 0.1 µM, first compound 10 µM",11.6%
same,"viability, T/C","second compound 0.316 µM, first compound 0.0316 µM",60.2%
same,"viability, T/C","second compound 0.316 µM, first compound 0.1 µM",55.9%
same,"viability, T/C","second compound 0.316 µM, first compound 0.316 µM",43.6%
same,"viability, T/C","second compound 0.316 µM, first compound 1 µM",45.5%
same,"viability, T/C","second compound 0.316 µM, first compound 3.16 µM",39%
same,"viability, T/C","second compound 0.316 µM, first compound 10 µM",14.1%
same,"viability, T/C","second compound 1 µM, first compound 0.0316 µM",53.2%
same,"viability, T/C","second compound 1 µM, first compound 0.1 µM",48%
same,"viability, T/C","second compound 1 µM, first compound 0.316 µM",59.5%
same,"viability, T/C","second compound 1 µM, first compound 1 µM",48.7%
same,"viability, T/C","second compound 1 µM, first compound 3.16 µM",28.1%
same,"viability, T/C","second compound 1 µM, first compound 10 µM",10.7%
